From patent publication US9999616B2 (ZENITH EPIGENETICS LTD., priority 2013, dated 2018)

What was measured:
hIL-6 mRNA = assay: Inhibition of hIL-6 mRNA transcription in LPS-stimulated U937 macrophages; format: cell-based, Human; details: Homo sapiens, U-937, PMA-differentiated U937 cells, 1 h pretreatment, LPS 3 h, read-out: IL-6 activity
Method in brief: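 PMA-differentiated U937 macrophages (60 ng/mL PMA, 3 days) pretreated 1 h with compound in 0.1% DMSO, then stimulated with 1 ug/mL E. coli LPS for 3 h at 37° C. IL-6 mRNA quantified by one-step TaqMan qRT-PCR, normalized to cyclophilin; fold expression relative to control, triplicate wells.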

[1] = target: Brd4 bromodomain 1 (BRD4(1)) (Homo sapiens, UniProt O60885); assay: Inhibition of tetra-acetylated histone H4 binding to Brd4 bromodomain 1, measured by FRET (HTRF); set-up: made in house; host or cells: E. coli BL21(DE3); details: 2 h at room temperature
Method in brief: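 N-terminally His-tagged bromodomain (200 nM), expressed in E. coli and purified by Ni affinity and size exclusion, was incubated with biotinylated tetra-acetylated H4 peptide (25-50 nM), Eu-cryptate streptavidin and XL665 anti-His in HEPES pH 7.4 buffer with 0.2% DMSO. Reactions ran 2 h at room temperature. IC50 came from the 665/620 nm fluorescence decrease.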

hIL-17 mRNA = assay: Inhibition of hIL-17 mRNA transcription in OKT3-stimulated peripheral blood mononuclear cells; format: cell-based; details: human PBMC, OKT3 stimulation 6 h, read-out: IL-17 Activity
Experimental: Human peripheral blood mononuclear cells were plated (2.0×10^5 cells per well) in a 96-well plate in 45 μL OpTimizer T Cell expansion media (Life Technologies) containing 20 ng/ml IL-2 and penicillin/streptomycin. The cells were treated with increasing concentrations of the test compound or DMSO (0.1%), and incubated at 37° C., 5% CO2 for 1 h before addition of 10× stock OKT3 antibody at 10 ug/ml in media. Triplicate wells were used for each concentration. Cells were incubated at 37° C., 5% CO2 for 6 h before the cells were harvested. At time of harvest, cells were pelleted by centrifugation at 800 rpm for 5 min. Cells were harvested using the mRNA Catcher PLUS kit according to manufacturer's instructions. The eluted mRNA was then used in a one-step quantitative real-time PCR reaction, using components of the RNA UltraSense™ One-Step Kit (Life Technologies) together with Applied Biosystems TaqMan® primer-probes for hIL-17 and Cyclophilin. Real-time PCR plates were run on a ViiA™7 real time PCR machine (Applied Biosystems), data was analyzed, normalizing the Ct values for hIL-17 to an internal control, prior to determining the fold induction of each unknown sample, relative to the control.

[2] = test system: c-myc in Human AML MV4-11 cells; assay: Inhibition of cMYC expression (mRNA, real-time PCR) in MV4-11 cells; format: cell-based; details: 3 h treatment, cMYC mRNA by real-time PCR
Method in brief: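 MV4-11 cells in IMDM with 10% FBS were treated with increasing compound concentrations (DMSO 0.1%) for 3 h at 37 °C, in triplicate. Isolated mRNA was quantified by one-step TaqMan RT-qPCR, cMYC Ct normalized to cyclophilin, and fold expression given relative to DMSO control.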

Human AML MV-4-11 cells = assay: Inhibition of cell proliferation in MV4-11 cells (CellTiter Aqueous One); format: cell-based; details: MV4-11, 72 h
Method in brief: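 MV4-11 cells, 5×10^4 per well in IMDM with 10% FBS, were exposed to increasing compound concentrations or 0.1% DMSO for 72 h at 37 °C in triplicate. Viability was read by MTS (CellTiter Aqueous One) absorbance at 490 nm after 3-4 h. IC50 was derived from background-corrected signal relative to DMSO.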

| SMILES | IC50 (hIL-6 mRNA) | IC50 [1] | IC50 (hIL-17 mRNA) | IC50 [2] | IC50 (Human AML MV-4-11 cells) |
| --- | --- | --- | --- | --- | --- |
| Cc1nc2c(-c3cnccc3C(F)(F)F)cc(-c3c(C)noc3C)cc2[nH]1 [Example Compound 50, 3,5-dimethyl-4-(2-methyl-4-(4-(trifluoro-methyl)pyridin-3-yl)-1H-benzo[d]imidazol-6-yl)isoxazole] | ≤ 300 nM | ≤ 300 nM | 300 to 3000 nM | 300 to 3000 nM | ≤ 300 nM |
| Cc1noc(C)c1Nc1cc(-c2c(C)noc2C)cc2[nH]cnc12 [Example Compound 42, N-(6-(3,5-dimethyl-isoxazol-4-yl)-1H-benzo[d]imidazol-4-yl)-3,5-dimethyl-isoxazol-4-amine] | ≤ 300 nM | ≤ 300 nM | 300 to 3000 nM | ≤ 300 nM | ≤ 300 nM |
| Cc1noc(C)c1-c1cc2c(c(-c3c(C)noc3C)c1)OCC(=O)N2 [Example Compound 11, 6,8-bis(3,5-dimethylisoxazol-4-yl)-2H-benzo[b][1,4]oxazin-3(4H)-one] | 300 to 3000 nM | ≤ 300 nM | 300 to 3000 nM | 300 to 3000 nM | 300 to 3000 nM |
| Cc1ccncc1-c1cc(-c2c(C)noc2C)cc2[nH]cnc12 [Example Compound 20, 3,5-dimethyl-4-(4-(4-methylpyridin-3-yl)-1H-benzo[d]imidazol-6-yl)isoxazole] | ≤ 300 nM | ≤ 300 nM | 300 to 3000 nM | 300 to 3000 nM | 300 to 3000 nM |
| Cc1noc(C)c1-c1cc(-c2cccc(C(N)=O)c2C)c2nc[nH]c2c1 [Example Compound 73, 3-(6-(3,5 dimethyl-isoxazol-4-yl)-1H-benzo[d]imidazol-4-yl)-2-methyl-benzamide] | ≤ 300 nM | ≤ 300 nM | 300 to 3000 nM | ≤ 300 nM | ≤ 300 nM |
| CCOc1nc2c(-c3cccnc3C)cc(-c3c(C)noc3C)cc2[nH]1 [Example Compound 81, 4-(2-ethoxy-4-(2-methylpyridin-3-yl)-1H-benzo[d]imidazol-6-yl)-3,5-dimethyl isoxazole] | 300 to 3000 nM | ≤ 300 nM | ≤ 300 nM | ≤ 300 nM | ≤ 300 nM |
| Cc1noc(C)c1-c1cc(-c2c(C)noc2C)c2c(C)c[nH]c2c1 [Example Compound 140, 4,4′-(3-methyl-1H-indole-4,6-diyl)bis(3,5-dimethylisoxazole)] | ≤ 300 nM | ≤ 300 nM | 300 to 3000 nM | ≤ 300 nM | ≤ 300 nM |
| Cc1nc2c(-c3ccc4sncc4c3)cc(-c3c(C)noc3C)cc2[nH]1 [Example Compound 137, 4-(4-(benzo[d]isothiazol-5-yl)-2-methyl-1H-benzo[d]imidazol-6-yl)-3,5-dimethyl isoxazole] | 300 to 3000 nM | ≤ 300 nM | 300 to 3000 nM | 300 to 3000 nM | 300 to 3000 nM |
| Cc1noc(C)c1-c1cc(-c2ccccc2C(F)(F)F)c2nc[nH]c2c1 [Example Compound 19, 3,5-dimethyl-4-(4-(2-(trifluoromethyl)phenyl)-1H-benzo[d]imidazol-6-yl)isoxazole] | 300 to 3000 nM | 300 to 3000 nM | ≤ 300 nM | 300 to 3000 nM | 300 to 3000 nM |
| COc1ncccc1-c1cc(-c2c(C)noc2C)cc2[nH]cnc12 [Example Compound 48, 4-(4-(2-methoxy-pyridin-3-yl)-1H-benzo[d]imidazol-6-yl)-3,5-dimethyl isoxazole] | – | ≤ 300 nM | 300 to 3000 nM | 300 to 3000 nM | 300 to 3000 nM |
| Cc1nc2c(-c3c(C(F)(F)F)nn(C)c3C)cc(-c3c(C)noc3C)cc2[nH]1 [Example Compound 66, 4-(4-(1,5-dimethyl-3-(trifluoro-methyl)-1H-pyrazol-4-yl)-2-methyl-1H-benzo[d]imidazol-6-yl)-3,5-dimethyl-isoxazole] | ≤ 300 nM | ≤ 300 nM | ≤ 300 nM | 300 to 3000 nM | ≤ 300 nM |
| Cc1nc2c(-c3cc(C#N)ccc3C)cc(-c3c(C)noc3C)cc2[nH]1 [Example Compound 58, 3-(6-(3,5-dimethyl-isoxazol-4-yl)-2-methyl-1H-benzo[d]imidazol-4-yl)-4-methyl-benzonitrile] | ≤ 300 nM | ≤ 300 nM | 300 to 3000 nM | – | ≤ 300 nM |
| Cc1noc(C)c1-c1cc(-c2c(C)noc2C)c2nc(C(C)C)[nH]c2c1 [Example Compound 45, 4,4′-(2-isopropyl-1H-benzo[d]imidazole-4,6-diyl)bis(3,5-dimethylisoxazole)] | – | ≤ 300 nM | 300 to 3000 nM | 300 to 3000 nM | 300 to 3000 nM |
| Cc1nc2c(-c3cccnc3C(F)(F)F)cc(-c3c(C)noc3C)cc2[nH]1 [Example Compound 59, 3,5-dimethyl-4-(2-methyl-4-(2-(trifluoro-methyl)pyridin-3-yl)-1H-benzo[d]imidazol-6-yl)isoxazole] | ≤ 300 nM | ≤ 300 nM | 300 to 3000 nM | – | ≤ 300 nM |
| Cc1noc(C)c1-c1cc(-c2cccc(C(N)=O)c2C)c2nc(N3CCN(C)CC3)[nH]c2c1 [Example Compound 206, 3-(6-(3,5-dimethyl-isoxazol-4-yl)-2-(4-methyl-piperazin-1-yl)-1H-benzo[d]imidazol-4-yl)-2-methyl benzamide] | 300 to 3000 nM | ≤ 300 nM | – | 300 to 3000 nM | 300 to 3000 nM |
| Cc1nc2c(-c3ncccc3C)cc(-c3c(C)noc3C)cc2[nH]1 [Example Compound 84, 3,5-dimethyl-4-(2-methyl-4-(3-methyl-pyridin-2-yl)-1H-benzo[d]imidazol-6 yl)isoxazole] | 300 to 3000 nM | 300 to 3000 nM | – | 300 to 3000 nM | 3000 to 30000 nM |
| Cc1nc2c(Oc3cc(C#N)ccc3C)cc(-c3c(C)noc3C)cc2[nH]1 [Example Compound 172, 3-((6-(3,5-dimethyl-isoxazol-4-yl)-2-methyl-1H-benzo[d]imidazol-4-yl)oxy)-4-methyl benzonitrile] | 300 to 3000 nM | ≤ 300 nM | – | 300 to 3000 nM | 300 to 3000 nM |
| Cc1noc(C)c1-c1cc(-c2c(C)noc2C)c2c(cnn2C)c1 [Example Compound 54, 4,4′-(1-methyl-1H-indazole-5,7-diyl)bis(3,5-dimethylisoxazole)] | 300 to 3000 nM | ≤ 300 nM | – | 300 to 3000 nM | ≤ 300 nM |
| Cc1nc2c(-c3csnc3C)cc(-c3c(C)noc3C)cc2[nH]1 [Example Compound 52, 3,5-dimethyl-4-(2-methyl-7-(3-methyliso-thiazol-4-yl)-1H-benzo[d]imidazol-5-yl)isoxazole] | 300 to 3000 nM | ≤ 300 nM | – | 300 to 3000 nM | 300 to 3000 nM |
| Cc1nc2c(Nc3cccnc3C)cc(-c3c(C)noc3C)cc2[nH]1 [Example Compound 143, 6-(3,5-dimethylisoxazol-4-yl)-2-methyl-N-(2-methylpyridin-3-yl)-1H-benzo[d]imidazol-4-amine] | 300 to 3000 nM | ≤ 300 nM | – | 300 to 3000 nM | 300 to 3000 nM |
| Cc1nc2c(-c3ccc4nncn4c3)cc(-c3c(C)noc3C)cc2[nH]1 [Example Compound 156, 4-(4-([1,2,4]triazolo [4,3-a]pyridin-6-yl)-2-methyl-1H-benzo[d]imidazol-6-yl)-3,5-dimethyl isoxazole] | 3000 to 30000 nM | ≤ 300 nM | – | 300 to 3000 nM | 3000 to 30000 nM |
